Data reported in patent publication US20260242391A1 (priority 2023, published 2026).

Tests used:
HL-60 = HL-60 differentiation potency; type: cell-based; conditions: Homo sapiens
in vitro = conditions: human

For `C[C@H]1[C@@H](OC[C@H]2CC[C@@H](C(=O)O)C2)O[C@@H]2O[C@@]3(C)CC[C@H]4[C@H](C)CC[C@@H]1[C@@]24OO3` [Compound 136, (1R,3S)-3-((((3R,5aS,6R, 8aS,9R,10S,12R, 12aR)-3,6,9-trimethyldeca-hydro-12H-3,12-epoxy[1,2]dioxepino[4,3-i]isochromen-10-yl)oxy)methyl) cyclopentane-1-carboxylic acid], the EC50 (HL-60) was 197 nM and the IC50 (in vitro) was over 20000 nM.

With `C[C@H]1[C@@H](Oc2ccc(C(=O)NCC(=O)O)cc2)O[C@@H]2O[C@@]3(C)CC[C@H]4[C@H](C)CC[C@@H]1[C@@]24OO3` [Compound 142, (4-(((3R,5aS,6R,8aS, 9R,10S,12R, 12aR)-3,6,9-trimethyldeca-hydro-12H-3,12-epoxy[1,2]dioxepino[4,3-i]isochromen-10-yl)oxy)benzoyl) glycine] the EC50 (HL-60) was 1820 nM and the IC50 (in vitro) was over 20000 nM.

In the case of `C[C@H]1[C@@H](Oc2ccc(CCCCC(=O)O)cc2)O[C@@H]2O[C@@]3(C)CC[C@H]4[C@H](C)CC[C@@H]1[C@@]24OO3` [Compound 72, 5-(4-(((3R,5aS, 6R,8aS,9R,10S, 12R,12aR)-3,6,9-trimethyldeca-hydro-12H-3,12-epoxy[1,2]dioxepino[4,3-i]isochromen-10-yl)oxy)phenyl) pentanoic acid], the EC50 (HL-60) is reported as 113 nM and the IC50 (in vitro) is reported as 777 nM.

`Cc1cc(C(=O)O)ccc1CO[C@H]1O[C@@H]2O[C@@]3(C)CC[C@H]4[C@H](C)CC[C@@H]([C@H]1C)[C@@]24OO3` [Compound 74, 3-methyl-4-((((3R,5aS,6R,8aS, 9R,10S,12R, 12aR)-3,6,9-trimethyldeca-hydro-12H-3,12-epoxy[1,2]dioxepino[4,3-i]isochromen-10-yl)oxy)methyl) benzoic acid] showed an EC50 (HL-60) of 865 nM and an IC50 (in vitro) of over 20000 nM.

In the case of `C[C@H]1[C@@H](OCc2ccc(C#N)cc2)O[C@@H]2O[C@@]3(C)CC[C@H]4[C@H](C)CC[C@@H]1[C@@]24OO3` [Compound 19, 4-((((3R,5aS,6R, 8aS,9R,10S,12R, 12aR)-3,6,9-trimethyldeca-hydro-12H-3,12-epoxy[1,2]dioxepino[4,3-i]isochromen-10-yl)oxy)methyl) benzonitrile], the EC50 (HL-60) is reported as 104 nM and the IC50 (in vitro) is reported as 138 nM.

Work on `C[C@H]1[C@@H](OCC2CC3C(C2)C3C(=O)O)O[C@@H]2O[C@@]3(C)CC[C@H]4[C@H](C)CC[C@@H]1[C@@]24OO3` (stereo partly drawn) [Compound 181, 3-((((3R,5aS,6R,8aS, 9R,10S,12R, 12aR)-3,6,9-trimethyldeca-hydro-12H-3,12-epoxy[1,2]dioxepino[4,3-i]isochromen-10-yl)oxy)methyl) bicyclo[3.1.0] hexane-6-carboxylic acid] yielded an EC50 (HL-60) of 140 nM and an IC50 (in vitro) of over 20000 nM.

Compound `C[C@H]1[C@@H](OCC(=O)N2CCC(C(=O)O)CC2)O[C@@H]2O[C@@]3(C)CC[C@H]4[C@H](C)CC[C@@H]1[C@@]24OO3` [Compound 148, 1-(2-(((3R,5aS,6R,8aS, 9R,10S,12R, 12aR)-3,6,9-trimethyldeca-hydro-12H-3,12-epoxy[1,2]dioxepino[4,3-i]isochromen-10-yl)oxy)acetyl) piperidine-4-carboxylic acid] has an EC50 (HL-60) of 6870 nM and an IC50 (in vitro) of over 20000 nM.

`C[C@H]1[C@@H](Oc2ccc(F)c(CC(=O)O)c2)O[C@@H]2O[C@@]3(C)CC[C@H]4[C@H](C)CC[C@@H]1[C@@]24OO3` [Compound 27, 2-(2-fluoro-5-(((3R,5aS,6R, 8aS,9R,10S,12R, 12aR)-3,6,9-trimethyldeca-hydro-12H-3,12-epoxy[1,2]dioxepino[4,3-i]isochromen-10-yl)oxy)phenyl) acetic acid] gave an EC50 (HL-60) of 239 nM and an IC50 (in vitro) of over 20000 nM.

In the case of `C[C@H]1[C@H](NCCc2ccccc2)O[C@@H]2O[C@@]3(C)CC[C@H]4[C@H](C)CC[C@@H]1[C@@]24OO3` [Compound 94, (3R,5aS,6R,8aS, 9R,10R,12R, 12aR)-3,6,9-trimethyl-N-phenethyldeca-hydro-12H-3,12-epoxy[1,2] dioxepino[4,3-i] isochromen-10-amine], the EC50 (HL-60) is reported as 257 nM and the IC50 (in vitro) is reported as 315 nM.

For `C[C@H]1[C@H](OCc2ccc(C#N)cc2)O[C@@H]2O[C@@]3(C)CC[C@H]4[C@H](C)CC[C@@H]1[C@@]24OO3` [Compound 7, 4-((((3R,5aS,6R, 8aS,9R,10R,12R, 12aR)-3,6,9-trimethyldeca-hydro-12H-3,12-epoxy[1,2]dioxepino[4,3-i]isochromen-10-yl)oxy)methyl) benzonitrile], the EC50 (HL-60) was 54.6 nM and the IC50 (in vitro) was 192 nM.

`C[C@H]1[C@H](N2CCC(C(=O)NC3CS(=O)(=O)C3)CC2)O[C@@H]2O[C@@]3(C)CC[C@H]4[C@H](C)CC[C@@H]1[C@@]24OO3` [Compound 65, N-(1,1-dioxidothietan-3-yl)-1-((3R,5aS,6R,8aS, 9R,10R,12R, 12aR)-3,6,9-trimethyldeca-hydro-12H-3,12-epoxy[1,2]dioxepino[4,3-i]isochromen-10-yl)piperidine-4-carboxamide] gave an EC50 (HL-60) of over 20000 nM and an IC50 (in vitro) of over 20000 nM.

With `C[C@H]1[C@@H](OCc2ccc(-c3nn[nH]n3)cc2)O[C@@H]2O[C@@]3(C)CC[C@H]4[C@H](C)CC[C@@H]1[C@@]24OO3` [Compound 38, 5-(4-((((3R,5aS,6R,8aS, 9R,10S,12R, 12aR)-3,6,9-trimethyldeca-hydro-12H-3,12-epoxy[1,2]dioxepino[4,3-i]isochromen-10-yl)oxy)methyl)phenyl)-2H-tetrazole] the EC50 (HL-60) was 616 nM and the IC50 (in vitro) was 13100 nM.

For `C[C@H]1[C@@H](Oc2ccc(C3(C(=O)O)CC3)cc2)O[C@@H]2O[C@@]3(C)CC[C@H]4[C@H](C)CC[C@@H]1[C@@]24OO3` [Compound 124, 1-(4-(((3R,5aS,6R,8aS, 9R,10S,12R, 12aR)-3,6,9-trimethyldeca-hydro-12H-3,12-epoxy[1,2]dioxepino[4,3-i]isochromen-10-yl)oxy)phenyl) cyclopropane-1-carboxylic acid], the EC50 (HL-60) was 28.8 nM and the IC50 (in vitro) was 2450 nM.

`C[C@H]1[C@@H](OCC2(C(=O)O)CCC2)O[C@@H]2O[C@@]3(C)CC[C@H]4[C@H](C)CC[C@@H]1[C@@]24OO3` [Compound 127, 1-((((3R,5aS,6R, 8aS,9R,10S,12R, 12aR)-3,6,9-trimethyldeca-hydro-12H-3,12-epoxy[1,2]dioxepino[4,3-i]isochromen-10-yl)oxy)methyl) cyclobutane-1-carboxylic acid] showed an EC50 (HL-60) of 8880 nM and an IC50 (in vitro) of over 20000 nM.

With `C[C@H]1[C@@H](Oc2ccc3c(c2)OC(C(=O)O)C3)O[C@@H]2O[C@@]3(C)CC[C@H]4[C@H](C)CC[C@@H]1[C@@]24OO3` (stereo partly drawn) [Compound 154, 6-(((3R,5aS,6R,8aS, 9R,10S,12R, 12aR)-3,6,9-trimethyldeca-hydro-12H-3,12-epoxy[1,2]dioxepino[4,3-i]isochromen-10-yl)oxy)-2,3-dihydrobenzo-furan-2-carboxylic acid] the EC50 (HL-60) was 70.8 nM and the IC50 (in vitro) was 9000 nM.

`C[C@H]1[C@@H](OCc2ccc(B(O)O)cc2)O[C@@H]2O[C@@]3(C)CC[C@H]4[C@H](C)CC[C@@H]1[C@@]24OO3` [Compound 169, (4-((((3R,5aS,6R,8aS, 9R,10S,12R, 12aR)-3,6,9-trimethyldeca-hydro-12H-3,12-epoxy[1,2]dioxepino[4,3-i]isochromen-10-yl)oxy)methyl)phenyl)boronic acid] showed an EC50 (HL-60) of 128 nM and an IC50 (in vitro) of 270 nM.

`C[C@H]1[C@H](OCC(=O)N2CC[C@@H](C(=O)O)C2)O[C@@H]2O[C@@]3(C)CC[C@H]4[C@H](C)CC[C@@H]1[C@@]24OO3` [Compound 163, (R)-1-(2-(((3R,5aS,6R,8aS, 9R,10R,12R, 12aR)-3,6,9-trimethyldeca-hydro-12H-3,12-epoxy[1,2]dioxepino[4,3-i]isochromen-10-yl)oxy)acetyl) pyrrolidine-3-carboxylic acid] gave an EC50 (HL-60) of over 20000 nM and an IC50 (in vitro) of over 20000 nM.

`C[C@H]1[C@H](NCc2cnn(C)c2)O[C@@H]2O[C@@]3(C)CC[C@H]4[C@H](C)CC[C@@H]1[C@@]24OO3` [Compound 46, (3R,5aS,6R,8aS, 9R,10R,12R, 12aR)-3,6,9-trimethyl-N-((1-methyl-1H-pyrazol-4-yl)methyl)decahydro-12H-3,12-epoxy[1,2] dioxepino[4,3-i] isochromen-10-amine] gave an EC50 (HL-60) of 1460 nM and an IC50 (in vitro) of 4380 nM.

`C[C@H]1[C@@H](Oc2ccc(CC(=O)O)cc2C(F)(F)F)O[C@@H]2O[C@@]3(C)CC[C@H]4[C@H](C)CC[C@@H]1[C@@]24OO3` [Compound 183, 2-(3-(trifluoromethyl)-4-(((3R,5aS,6R, 8aS,9R,10S,12R, 12aR)-3,6,9-trimethyldeca-hydro-12H-3,12-epoxy[1,2]dioxepino[4,3-i]isochromen-10-yl)oxy)phenyl) acetic acid] gave an EC50 (HL-60) of 47.1 nM and an IC50 (in vitro) of 900 nM.

With `Cc1cc(CO[C@@H]2O[C@@H]3O[C@@]4(C)CC[C@H]5[C@H](C)CC[C@@H]([C@H]2C)[C@@]35OO4)ccc1C(=O)O` [Compound 51, 2-methyl-4-((((3R,5aS,6R,8aS, 9R,10R,12R, 12aR)-3,6,9-trimethyldeca-hydro-12H-3,12-epoxy[1,2]dioxepino[4,3-i]isochromen-10-yl)oxy)methyl) benzoic acid] the EC50 (HL-60) was 2410 nM and the IC50 (in vitro) was over 20000 nM.

Compound `COc1cc(CO[C@@H]2O[C@@H]3O[C@@]4(C)CC[C@H]5[C@H](C)CC[C@@H]([C@H]2C)[C@@]35OO4)ccc1C(=O)O` [Compound 54, 2-methoxy-4-((((3R,5aS,6R,8aS, 9R,10R,12R, 12aR)-3,6,9-trimethyldeca-hydro-12H-3,12-epoxy[1,2]dioxepino[4,3-i]isochromen-10-yl)oxy)methyl) benzoic acid] has an EC50 (HL-60) of 2820 nM and an IC50 (in vitro) of over 20000 nM.

Work on `CNC(=O)CCN[C@@H]1O[C@@H]2O[C@@]3(C)CC[C@H]4[C@H](C)CC[C@@H]([C@H]1C)[C@@]24OO3` [Compound 95, N-methyl-3-(((3R,5aS,6R,8aS, 9R,10R,12R, 12aR)-3,6,9-trimethyldeca-hydro-12H-3,12-epoxy[1,2]dioxepino[4,3-i]isochromen-10-yl)amino) propanamide] yielded an EC50 (HL-60) of 348 nM and an IC50 (in vitro) of 352 nM.

`C[C@H]1[C@H](CCNS(C)(=O)=O)O[C@@H]2O[C@@]3(C)CC[C@H]4[C@H](C)CC[C@@H]1[C@@]24OO3` [Compound 62, N-(2-((3R,5aS,6R,8aS, 9R,10S,12R, 12aR)-3,6,9-trimethyldeca-hydro-12H-3,12-epoxy[1,2]dioxepino[4,3-i]isochromen-10-yl)ethyl) methane-sulfonamide] showed an EC50 (HL-60) of 16400 nM and an IC50 (in vitro) of over 20000 nM.
